Measured values taken from paper PMC12101129, “An optimized CYP3A4-activatable fluorogenic sensor for in situ functional imaging and multi-dimensional inhibitor assessment” (Chemical Science, 2025).

Experiments:
CYP3A4 = assay: Liver organ imaging in the presence of CYP3A4 inhibitor; set-up: species or system mice; conditions: male, C57BL/6J, mouse, isolated liver tissue, probe NCN (50 µM); read-out: residual activity of hepatic CYP3A4
Experimental: dose group (CCl4-L, 0.15%), and CCl4 high dose group (CCl4-H, 0.3%). CCl4 was dissolved in vegetable oil and administered via intraperitoneal injection. After that, mice were fasted and allowed to drink water freely. After 18 h, blood samples were collected to determine the level of ALT and AST, while liver tissues were collected and washed with PBS. Then, the liver tissues were soaked 30 min in a solution containing NCN (50 μM, 5 mL) for fluorescent imaging. After organ imaging, the tissues were ground, and centrifuged, and the supernatant was diluted with 10-fold acetonitrile to precipitate the protein. After centrifugation again, the supernatant was determined to quantify the level of HNCN.
1.15. Bio-safety assessment of NCN in healthy mice
Sixteen C57BL/6J mice (8 males and 8 females, 6 weeks) were randomly assigned into two groups (4 males and 4 females). All mice were subjected to adaptive feeding for 7 d before the experiment. […] Mice organs were weighed and the organ index was calculated, and hematoxylin and eosin (H&E) stains were provided by Shanghai Ruibaohe Biotechnology Co., Ltd. […]
After that, the liver tissues were removed, and fluorescence imaging of the liver was performed using VISQUE Invivo Smart-LF. […]
quantify the levels of HNCN. […]
fluorescence intensity of the control (solvent only)) × 100%. […]

CYP3A = CYP3A inhibition assay in mouse liver microsomes; assay type: biochemical; conditions: MLMs

SMILES: CC(=O)N1CCN(c2ccc(OCC3COC(Cn4ccnc4)(c4ccc(Cl)cc4Cl)O3)cc2)CC1 (centres unmarked) [KCZ, ketoconazole]
- activity at 1 h, 1 µM (CYP3A4): ~20%
